Data set [1] can be described thus: Equilibrium solubility, saturation shake-flask, centrifugation as phase separation. As to conditions: for solubility thermodynamic at 24 h / solubility thermodynamic: Britton-Robinson buffer; for solubility thermodynamic at 24 h: continuously stirred, no sedimentation; for solubility thermodynamic: pH 7.4, Equilibrium solubility S sed, sedimented before centrifugation.

For data set [2] the following is noted: cited from earlier work; for Filtration: Result Range: % of reference, all filters.
The nature of data set [3]: Ionization state calculated from pKa and buffer pH. The data set is classed as physicochemical.
Data set [4] can be described thus: Equilibrium solubility, saturation shake-flask, sedimentation as phase separation (reference, standard protocol). As to conditions: for solubility: Britton-Robinson buffer, 6 h stirring, 18 h sedimentation, 25 °C.
For data set [5] the following is noted: cited from earlier work.
The conditions of data set [6]: cited from earlier work. The source holds these as a separate data set.
The conditions of data set [7]: pH 7.4.

Values after ≈ are worked out from the molar mass of the structure shown. Where two headings read alike, the source gives them in different places.

As for `O=C(O)Cc1ccccc1Nc1c(Cl)cccc1Cl` [DICL-NA, Diclofenac sodium], the solubility (thermodynamic) at 24 h in data set [1] (25 °C, pH 10, aqueous buffer, thermodynamic from solid, Equilibrium solubility S stir, pH 10.0, 10,000 rpm, 20 min) came to 11200 µg/mL; in data set [1] (pH 2, Equilibrium solubility S stir, pH 2.0, 5000 rpm, 5 min) it was 1.64 ± 0.04 µg/mL; in data set [1] (pH 2, Equilibrium solubility S stir, pH 2.0, 5000 rpm, 10 min), 1.52 ± 0.22 µg/mL; in data set [1] (pH 2, Equilibrium solubility S stir, pH 2.0, 5000 rpm, 20 min) it was 1.71 ± 0.07 µg/mL; in data set [1] (pH 2, Equilibrium solubility S stir, pH 2.0, 10,000 rpm, 5 min) it was 1.82 ± 0.07 µg/mL; in data set [1] (pH 2, Equilibrium solubility S stir, pH 2.0, 10,000 rpm, 10 min), 1.78 ± 0.07 µg/mL. The thermodynamic solubility at 24 h in data set [1] (pH 2, Equilibrium solubility S stir, pH 2.0, 10,000 rpm, 20 min) was found to be 2 ± 0.13 µg/mL; in data set [1] (pH 4, Equilibrium solubility S stir, pH 4.0, 5000 rpm, 5 min), 2.7 ± 0.1 µg/mL; in data set [1] (pH 4, Equilibrium solubility S stir, pH 4.0, 5000 rpm, 10 min), 2.69 ± 0.24 µg/mL; in data set [1] (pH 4, Equilibrium solubility S stir, pH 4.0, 5000 rpm, 20 min), 2.58 ± 0.16 µg/mL; in data set [1] (pH 4, Equilibrium solubility S stir, pH 4.0, 10,000 rpm, 5 min) it was 2.79 ± 0.2 µg/mL; in data set [1] (pH 4, Equilibrium solubility S stir, pH 4.0, 10,000 rpm, 10 min), 2.8 ± 0.11 µg/mL. The solubility (thermodynamic) at 24 h in data set [1] (pH 4, Equilibrium solubility S stir, pH 4.0, 10,000 rpm, 20 min) was 2.88 ± 0.18 µg/mL; in data set [1] (pH 10, Equilibrium solubility S stir, pH 10.0, 5000 rpm, 10 min), 9810 ± 318 µg/mL; in data set [1] (pH 10, Equilibrium solubility S stir, pH 10.0, 5000 rpm, 20 min), 10700 µg/mL; in data set [1] (pH 10, Equilibrium solubility S stir, pH 10.0, 10,000 rpm, 5 min), 9660 ± 760 µg/mL. For the same compound, the “Centrifugation: Closest to Reference (100%)” value in data set [1] (pH 2.0) was 100%; in data set [1] (pH 4.0), 99%; in data set [1] (pH 10.0) it was 98%. Moreover, the “Measured concentration after filtration” value in data set [2] (nylon filter, low pH values) is listed as “dropped to zero”. Besides, the results for the “Filtration: Result Range” value in data set [2] (pH 2.0), in data set [2] (pH 4.0) and in data set [2] (pH 10.0) were 0–164%, 0–103% and 64–99%, respectively. Moreover, the “Filtration: Closest to Reference (100%)” value in data set [2] (pH 2.0) is reported as 93%; in data set [2] (pH 4.0) it was 103%; in data set [2] (pH 10.0), 99%. The Fraction ionized entry in data set [3] (pH 2.0) is “about 1%”; in data set [3] (pH 4.0), “around 50%”. In addition, the solubility came to 1.67 ± 0.05 µg/mL in data set [4] (pH 2, Solubility (reference), pH 2.0) and 9470 ± 327 µg/mL in data set [4] (pH 10, Solubility (reference), pH 10.0). Further, in data set [4] (pH 10.0 (fully ionized) vs unionized form), the “Increase of solubility compared to the unionized form” value is given as 5670 fold.

Consider `NS(=O)(=O)c1cc2c(cc1Cl)NCNS2(=O)=O` [HCT, hydrochlorothiazide], for which, in data set [2] (pH 6.0), the “Filtration: Result Range” value is reported as 83–103% and the “Filtration: Closest to Reference (100%)” value is 102%. In addition, in data set [2] (pH 8.8), the “Filtration: Result Range” value is 75–100% and the “Filtration: Closest to Reference (100%)” value is 100%. Also, in data set [2] (pH 11.0), the “Filtration: Result Range” value is 65–119% and the “Filtration: Closest to Reference (100%)” value is on record as 100%. The pKa in data set [5] (first pKa for HCT) is reported as 8.75. For the same compound, the “pKa (second value)” value in data set [5] (second pKa of the diprotic acid) is given as 9.96. Also, in data set [3] (pH 8.8), the “Fraction in dianionic form” value is on record as 4%, the Fraction monoanionic is 51% and the Fraction unionized is reported as 45%.

On to `CC(=O)[C@H]1CC[C@H]2[C@@H]3CCC4=CC(=O)CC[C@]4(C)[C@H]3CC[C@]12C` [PROG, progesterone], for which the solubility (thermodynamic) in data set [1] (pH 7.4, 5000 rpm, 5 min) amounted to 10.9 ± 0.09 µg/mL (≈ 34.7 µM); in data set [1] (pH 7.4, 5000 rpm, 10 min) it was 10.9 ± 0.09 µg/mL (≈ 34.7 µM); in data set [1] (pH 7.4, 5000 rpm, 20 min), 11.5 ± 0.06 µg/mL (≈ 36.6 µM); in data set [1] (pH 7.4, 10,000 rpm, 5 min), 11 ± 0.12 µg/mL (≈ 35 µM); in data set [1] (pH 7.4, 10,000 rpm, 10 min) it was 11.6 ± 0.11 µg/mL (≈ 36.9 µM); in data set [1] (pH 7.4, 10,000 rpm, 20 min), 12.4 ± 0.06 µg/mL (≈ 39.4 µM). In addition, the solubility (thermodynamic) at 24 h in data set [1] (pH 7.4, Equilibrium solubility S stir, pH 7.4, 5000 rpm, 5 min) was 11 ± 0.06 µg/mL (≈ 35 µM); in data set [1] (pH 7.4, Equilibrium solubility S stir, pH 7.4, 5000 rpm, 10 min) it was 11.3 ± 0.14 µg/mL (≈ 35.9 µM); in data set [1] (pH 7.4, Equilibrium solubility S stir, pH 7.4, 5000 rpm, 20 min), 12.8 ± 0.05 µg/mL (≈ 40.7 µM); in data set [1] (pH 7.4, Equilibrium solubility S stir, pH 7.4, 10,000 rpm, 5 min), 11 ± 0.18 µg/mL (≈ 35 µM); in data set [1] (pH 7.4, Equilibrium solubility S stir, pH 7.4, 10,000 rpm, 10 min), 11.7 ± 0.14 µg/mL (≈ 37.2 µM); in data set [1] (pH 7.4, Equilibrium solubility S stir, pH 7.4, 10,000 rpm, 20 min) it was 13.3 ± 0.2 µg/mL (≈ 42.3 µM). Also, in data set [1] (vs reference, pH 7.4), the “Increase in measured solubility caused by centrifugation” value is given as “at least 20%”. The logP in data set [6] is listed as 3.48. Also, the “Filtration: Result Range” value in data set [2] (pH 7.4) was 55–98%. The “Filtration: Closest to Reference (100%)” value in data set [2] (pH 7.4) is on record as 98%. In data set [7], the “Centrifugation: Closest to Reference (100%)” value is 121%. In data set [7], the “Centrifugation: Result Range” value is reported as 121–148%. The solubility in data set [4] (pH 7.4, Solubility (reference), pH 7.4) came to 8.98 ± 0.09 µg/mL (≈ 28.6 µM).

In general, thermodynamic solubility refers to the concentration in solution at equilibrium with solid. As a reminder, the solubility is the dissolved amount per volume that the medium holds. High values mean a readily soluble substance, low ones a poorly soluble substance. The pKa is the pH at which an ionisable group is half protonated. What is called logP is the decadic logarithm of the partition coefficient of the neutral form, usually between octanol and water.
